What was measured:
[1] = system: iPSC-derived RPE cells from AMD donors; experiment: Cell viability assay on nitrite-modified ECM (Real Time-Glo MT Cell Viability Assay); type: cell-based, human; details: 10, 100, 1000 nM; 24 hours; versus vehicle-treated cells; FIG. 8J, *p<0.05
Procedure: General. iPSC-derived RPE were generated from AMD patients (2 atrophic; 1 exudative) and patients with no history of AMD (n=3). To test the therapeutic efficacy of elamipretide and compound of Formula IIa, cell viability was analyzed on nitrite-modified extracellular matrix (ECM), a typical modification of aged Bruch's membrane, for 24 hrs. DNA microarrays were used to elucidate gene expression in AMD-derived RPE cultured on nitrite-modified ECM.
Preparation of RPE cell-derived ECM and nitrite-modified ECM RPE cell-derived ECM plates were prepared from ARPE-19 cells as described in Wang et al., Curr Eye Res. 30:691-702 (2005); Fields et al. (2017); and Moreira et al., Transl Vis Sci Technol. 4:10 (2015). ECM on 96-well plates were used to create two experimental plating surfaces (nontreated ECM and nitrite-modified ECM). Nitrite-modified ECM was prepared by adding 100 mM sodium nitrite to ECM followed by incubation at 37° C. for 7 days. Plates were then washed with DPBS and incubated with DPBS for 4 hours to completely remove the nitrite. […]
Cell viability was measured by Real Time-Glo MT Cell Viability Assay (Promega, Madison, WI, www.promega.com) according to the manufacturer's protocol. […] Luminescent signals were acquired using a BioTek FLx800 plate reader (BioTek).

[2] = 28-day SC study safety endpoints (clinical observations, ophthalmology); type: in vivo, cynomolgus monkey
Procedure: Male and female cynomolgus monkeys were divided into four groups (Groups 1 to 4). Groups 1 and 4 consisted of five males and five females each and Groups 2 and 3 consisted of three males and three females each. Animals were dosed via SC injection once daily for 28 consecutive days. Group 1 animals received the control article, 0.9% sodium chloride injection, USP (saline). Group 2, 3, and 4 animals received the test article, compound of Formula IIa, at dose levels of 2, 5, and 15 mg/kg/day, respectively. Three males and three females from Groups 1 to 3, and three males and one female from Group 4 were necropsied on Day 29 (terminal necropsy). Two males and two females from Groups 1 and 4 were necropsied on Day 42 (recovery necropsy), after a 13-day treatment-free period. […] At termination, gross observations and organ weights were recorded, and eye/optic nerve tissue samples were collected for microscopic evaluation and biodistribution assays. […]
Body weight. Body weights were measured twice during acclimation (including Day −1), then weekly during the in-life phase (Days 7, 14, 21, 28, 35, and 41) and on the day of corresponding necropsy (Day 29 or Day 42). […]

[3] = 10-day SC study in-life assessments (mortality, body weight, tolerability); type: in vivo, cynomolgus monkey
Procedure: Administration of Compound of Formula IIa. The test agent (compound of formula IIa) was administered daily via subcutaneous injection into the scapular and mid-dorsal areas for 10 days. The first day of dosing was designated as Day 1. Dose formulations were allowed to warm up at ambient temperature for at least 30 minutes prior to dosing, as appropriate. The animals were temporarily restrained for dose administration and were not sedated. The volume for each dose was administered over 1 (preferred) or 2 (as necessary) separated injections within the designated area. If a designated injection site was not available for a given animal on any day, the next available test site in the rotation was used. The injection area was marked as frequently as required to allow appropriate visualization of administration sites. On the last injection occasion for each quadrant, the last site of injection was circled, and the circled site was collected for necropsy.
In-life procedures, observations, and measurements.

[4] = SC 5 mg/kg/day for 10 days, 3 males

Q: Which results are given for Cc1cc(O)cc(C)c1C[C@H](NC(=O)[C@H](N)CCCNC(=N)N)C(=O)N[C@@H](CCCCN)c1nc(Cc2ccccc2)no1.Cl.Cl.Cl [Formula IIa, (R)-2-amino-N—((S)-1-(((S)-5-amino-1-(3-benzyl-1,2,4-oxadiazol-5-yl)pentyl)amino)-3-(4-hydroxy-2,6-dimethylphenyl)-1-oxopropan-2-yl)-5-guanidinopentanamide]?
A: AMD-derived RPE cell viability on nitrite-modified ECM [1]: significantly enhanced; tolerability of dosing ([2]; SC 15 mg/kg/day (Group 4), two females necropsied early on Days 25 and 27): not well tolerated; ophthalmology examination findings ([2]; SC 2, 5, 15 mg/kg/day, Day 24 (Week 4)): no compound of Formula IIa-related findings; tolerability of administration by subcutaneous injection ([3]; 5 mg/kg/day for 10 days): well-tolerated; body weights, differences related to administration [3, 4]: no differences in body weights; mortality during the study [3, 4]: no mortality

From patent US20260263550A1, “METHODS AND COMPOSITIONS FOR TREATING, PREVENTING, INHIBITING, AMELIORATING OR DELAYING THE ONSET OF OPHTHALMIC CONDITIONS” (Stealth BioTherapeutics Inc., priority 2021, published 2026)
